Laboratory results reported in patent US9963514B2, “BAG3 receptor binding molecules for use as a medicament” (BIOUNIVERSA S.R.L., priority 2013, dated 2018).

Legend:
[1] = system: J774 A1 cells; experiment: Binding of FITC-BAG3 to J774 macrophages by flow cytometry, with competition by BAG3-specific peptides or anti-BAG3 F(ab')2; design: species or system murine
Procedure: J774 A1 cells (1×10^6 cells/ml) were incubated with different concentrations of BAG3 FITC protein ([…]). FITC-BSA (70 nM) was used as a negative control (grey). Fluorescence was analyzed by flow cytometry. (FIG. 10).
In particular, J774 cells were incubated with 14 nM FITC-BAG3 protein and with 625 nM BAG3-specific peptides (peptide 1, peptide 2, peptide 3, peptide 4, or a scrambled peptide) or with 420 nM of anti-BAG3 F(ab′) antibodies (mouse monoclonal antibodies AC1, AC2 and the polyclonal antibody produced in rabbit TOS2). Fragments F(ab′) 2 of rabbit or mouse IgG were used as a negative control.

[2] = system: J774 A1 cells; experiment: Confocal fluorescence microscopy of rBAG3-FITC binding to J774 cells; design: species or system murine; conditions: 1 h
Procedure: The binding of the BAG3 protein to the cell surface of the J774 cells was then confirmed through conjugation of the recombinant protein with a fluorophore (FIG. 8). The BAG3 recombinant protein was then conjugated to FITC using the FluoroTag Conjugation FITC kit (SIGMA). Equal amounts of BSA-FITC (negative control) and rBAG3-FITC were added to the culture medium for 1 h. The cells were then fixed with a 3.7% formaldehyde solution and analyzed with a Zeiss LSM confocal microscope.
Confocal fluorescence microscopy analysis was performed to measure the binding of rBAG3-FITC to HCM, J774 A1, and PANC-1 cells. The BAG3 recombinant protein and the BSA (bovine serum albumin) (SIGMA) were conjugated to FITC using the FluoroTag Conjugation FITC kit (SIGMA) following the manufacturer's instructions. Equal amounts of rBAG3-FITC and BSA-FITC were added to the three cell lines in the presence of 0.1% NaN3 for 1 h. β-integrin protein was used as a positive control. Fluorescence was analyzed using a Zeiss LSM confocal microscope.

[3] = system: heart muscle cells (HCM); experiment: Confocal fluorescence microscopy of rBAG3-FITC binding to HCM cells; conditions: 0.1% NaN3, 1 h
Procedure: (§1) (FIG. 9). Confocal fluorescence microscopy analysis was performed to measure the binding of rBAG3-FITC to HCM, J774 A1, and PANC-1 cells. The BAG3 recombinant protein and the BSA (bovine serum albumin) (SIGMA) were conjugated to FITC using the FluoroTag Conjugation FITC kit (SIGMA) following the manufacturer's instructions. Equal amounts of rBAG3-FITC and BSA-FITC were added to the three cell lines in the presence of 0.1% NaN3 for 1 h. β-integrin protein was used as a positive control. Fluorescence was analyzed using a Zeiss LSM confocal microscope.

[4] = system: pancreatic adenocarcinoma cells (PANC-1); experiment: Confocal fluorescence microscopy of rBAG3-FITC binding to PANC-1 cells; conditions: 0.1% NaN3, 1 h
Procedure: as §1

[5] = system: J774 murine monocyte cell line; experiment: Macrophage activation: nitrite production with Griess reagent (Example 8); format: cell-based; conditions: 24 h
Procedure: J774 cells were plated at a 60% confluence and incubated for 24 h with the BAG3 recombinant protein at concentrations of 10, 30, or 100 ng/ml. The nitrites production was verified in the culture medium using Griess reagent (1% sulphanilamide, 0.1% naphthyl ethylenediamine, 5% phosphoric acid) and measured using a Beckman DU-62 spectrophotometer at […].
The BAG3 recombinant protein was then used in macrophage activation assays in order to determine a possible role of the protein released in the serum in relation to the blood cells. To this end, the J774 murine monocyte cell line was treated with the BAG3 recombinant protein at different concentrations, using a pro-inflammatory agent, such as lipopolysaccharide (LPS), as a positive control. The activation of monocytes was measured by assay of nitrites. (FIG. 7).

[6] = system: inducible nitric oxide synthase (iNOS); experiment: Effect of rBAG3 on iNOS expression in J774 cells (Western blot); format: cell-based, murine; conditions: 20 hours
Procedure: (§2) In order to explore the functional consequences of the binding of BAG3 to macrophages, we tested the effect of rBAG3 expression on inducible nitric oxide synthase (iNOS) and cyclo-oxygenase-2 (COX-2) in the cells. J774 cells at 80% confluence were incubated with a control medium, BSA, LPS or rBAG3 for 20 hours. Polymyxin was added to verify the presence of non-specific effects of endotoxins still present after the purification of the BAG3 recombinant protein. COX-2 and iNOS were analyzed in cell lysates by Western blotting.

[7] = system: cyclo-oxygenase-2 (COX-2); experiment: Effect of rBAG3 on COX-2 expression in J774 cells (Western blot); format: cell-based, murine; conditions: 20 hours
Procedure: as §2

[8] = system: J774 A1 macrophages; experiment: Nitrite release by J774 A1 macrophages incubated with rBAG3 (Example 12); format: cell-based, murine; conditions: J774 A1 cells, 24 hours
Procedure: J774 A1 cells at 80% confluence were incubated with a control medium, BSA, LPS, or rBAG3 for 24 hours. […] supernatant from each sample was incubated with […] Griess reagent; the optical density at 550 nm (OD550) was measured with a Beckman DU62 spectrophotometer. The nitrite concentration was assessed by comparing the sample's OD at 550 nm with that of a standard sodium nitrite curve (FIG. 12).

[9] = system: J774 A1 macrophages; experiment: IL-6 release by J774 A1 macrophages incubated with rBAG3 (ELISA, Example 13); format: cell-based, murine; conditions: J774A.1 cells, 5 hours
Procedure: J774A.1 cells at 80% confluence were incubated with a control medium, BSA, LPS, or BAG3 for 5 hours. IL-6 was measured in the cell culture medium using an ELISA test. IL-6 concentration was assessed by comparing the sample's ODs with that of a standard IL-6 recombinant curve (FIG. 13).

For “FITC-rBAG3: BAG3 recombinant protein conjugated to FITC using the FluoroTag Conjugation FITC kit”, the “FITC-rBAG3 positive cell % (±D.S.)” value ([1]; J774 cells, FITC-rBAG3 alone, flow cytometry) was 15.7 (±0.45) %, the “(FITC-rBAG3)-(FITC-BSA) positive cell % (±D.S.)” value ([1]; J774 cells, FITC-rBAG3 minus FITC-BSA) was 11.06 (±0.45) % and the “binding of FITC-BAG3 to macrophages of the J774 cell line” value ([1]; flow cytometry, 7, 14 and 70 nm FITC-BAG3) was “binds the macrophages of the J774 cell line”. For the same substance, the “binding to the cell surface of J774 macrophages” value ([2]; listed as BAG3 recombinant protein bound to fluorescein isothiocyanate (FITC)) was “binds the surface of macrophages”, the “binding to the cell surface of J774 macrophages” value ([2]; listed as rBAG3-FITC) was “confirmed” and the “binding to heart muscle cells (HCM)” value [3] was “not”. For the same substance, the “binding to pancreatic adenocarcinoma cells (PANC-1)” value [4] was “not”.
“rBAG3: BAG3 recombinant protein with a His tag” was tested, and the “increase of nitrite production compared to the control” value ([5]; J774 cells, 100 ng/ml, p<0.001) was 200%, the “nitrite production, dependence on dose” value ([5]; J774 cells, 10, 30 or 100 ng/ml) was “dose-dependent” and the iNOS enzyme levels [6] was “increased”. The COX-2 enzyme levels [7] was “increased”, the release of nitrite [8] was “induces the release of nitrite” and the “release of interleukin-6 (IL-6)” value [9] was “induces the release of interleukin-6 (IL-6)”.
With “FITC-BSA: bovine serum albumin conjugated to FITC, negative control [reference compound]” the “FITC-BSA positive cell % (±D.S.)” value ([1]; J774 cells, FITC-BSA negative control, flow cytometry) was 4.04 (±0.06) %.
